B1: NEO-101: Chimeric NPC-1 antibody, engineered in CHO-DG44 production cell clone 4B7; targets a variant of MUC5AC (protein)
light: MDFQVQIFSFLLISASVILSRGQVVLTQSPVIMSASPGEKVTMTCSASSSISYMYWYQQKPGTSPKRWIYDTSKLASGVPARFSGSGSGTSYSLTISNMEAGDAATYYCHQRDSYPWTFGGGTNLEIKRADAAPTVSIFPPSSEQLTSGGASVVCFLNNFYPKDINVKWKIDGSERQNGVLNSWTDQDSKDSTYSMSSTLTLTKDEYERHNSYTCEATHKTSTSPIVKSFNRNEC
heavy: MAVLALLLCLVTFPSCVLSQVQLKESGPDLVAPSQSLSITCTVSGFSLSKFGVNWVRQPPGKGLEWLGVIWGDGSTSYNSGLISRLSISKENSKSQVFLKLNSLQADDTATYYCVKPGGDYWGHGTSVTVSSAKTTPPSVYPLAPGSAAQTNSMVTLGCLVKGYFPEPVTVTWNSGSLSSGVHTFPAVLQSDLYTLSSSVTVPSSTWPSETVTCNVAHPASSTKVDKKIVPRDCGCKPCICTVPEVSSVFIFPPKPKDVLTITLTPKVTCVVVDISKDDPEVQFSWFVDDVEVHTAQTQPREEQFNSTFRSVSELPIMHQDWLNGKEFKCRVNSAAFPAPIEKTISKTKGRPKAPQVYTIPPPKEQMAKDKVSLTCMITDFFPEDITVEWQWNGQPAENYKNTQPIMDTDGSYFVYSKLNVQKSNWEAGNTFTCSVLHEGLHNHHTEKSLSHSPGK
modifications: NPC-1 antibody light chain; (46)..(55) CDR1; (71)..(77) CDR2; (110)..(118) CDR3; NPC-1 antibody heavy chain; (49)..(54) CDR1; (69)..(84) CDR2; (114)..(121) CDR3
notes: Chimeric NPC-1 antibody, engineered in CHO-DG44 production cell clone 4B7; targets a variant of MUC5AC

Assays:
[1] = tested on: colon cancer samples; test: Immunohistochemistry, cancer tissue microarray, colon; format: binding
Description: (§1) FIG. 2. Immunohistochemistry results from cancer tissue arrays. Immunohistochemistry method (IHC) was used for determining the presence of NEO-101/102, NEO-201 and NEO-301 antigens on paraffin microarrays and tissues. These primary antibodies (NEO-101/NEO-102, NEO-201 and NEO-301) were biotinylated prior to use. Paraffin tissue Microarrays and slides of tissues were reacted with the primary Ab after inactivating endogenous peroxidase and blocking the slides. Staining was detected with streptavidin-horseradish peroxidase conjugate and visualized with chromogen. Biotinylated human IgG1 was used as negative control and mouse anti-human cytokeratin monoclonal antibody was used as positive control. Antibody staining is measured as % and intensity of tumor epithelial cells and luminal secretion within the whole tissue section.
(§2) Immunohistochemistry (IHC) was used for determining the presence of NEO-101/102, NEO-201 and NEO-301 antigens on paraffin microarrays and tissues. These primary antibodies (NEO-101/NEO-102, NEO-201 and NEO-301) were biotinylated prior to use. […] Staining was detected with streptavidin-horseradish peroxidase conjugate and visualized with chromogen. […] Antibody staining was measured as % and intensity of tumor epithelial cells and luminal secretion within the whole tissue section. […]

[2] = tested on: lung squamous carcinoma cells; test: Antigen expression by Flow Cytometry, lung squamous cell carcinoma cell lines; format: binding, Human; details: multiple lung squamous cell carcinoma cell lines; primary antibody 10 ug/mL
Procedure: (§3) FIG. 1. NEO-101, NEO-201 and NEO-301 Antigen Expression by Human Normal and Cancer Cell Lines. NEO-101, NEO-201 and NEO-301 specific antigen expression in various cell lines were detected by Flow Cytometry. Viable cell suspensions were incubated with primary antibody NEO-101, NEO-201 and NEO-301 separately at 10 ug/mL. Human IgG (10 ug/mL) was used as negative control. Goat anti-human IgG (Fc)-phycoerythrin conjugate was used for primary antibody detection; 7-ADD was used for excluding dead cells from analysis. The staining was measured by Flow Cytometry (Guava instrument, Millipore). Median fluorescent intensity (MFI) and % of stained cells was used for determining presence of specific antigen on each cell line.
(§4) Antigen expression in cell lines of various origins were detected by Flow Cytometry. Viable cell suspensions were incubated with primary antibody NEO-101, NEO-201 and NEO-301 separately at 10 ug/mL. Human IgG (10 ug/mL) was used as negative control. Goat anti-human IgG (Fc)-phycoerythrin conjugate was used for primary antibody detection; 7-ADD was used for excluding dead cells from analysis. The staining was measured by Flow Cytometry (Guava instrument, Millipore). Median fluorescent intensity (MFI) and % of stained cells was used for determining presence of specific antigen on each cell line. […]

[3] = tested on: pancreatic cancer samples; test: Immunohistochemistry, paraffin tissue sections, pancreas; format: binding
Description: as §1, §2

[4] = tested on: lung cancer samples; test: Immunohistochemistry, cancer tissue microarray, lung; format: binding
Description: as §1, §2

[5] = tested on: colorectal adenocarcinoma cells; test: Antigen expression by Flow Cytometry, colorectal adenocarcinoma cell lines; format: binding, Human; details: multiple colorectal adenocarcinoma cell lines; primary antibody 10 ug/mL
Procedure: as §3, §4

[6] = tested on: lung cancer samples; test: Immunohistochemistry, paraffin tissue sections, lung; format: binding
Description: as §1, §2

[7] = tested on: skin cancer samples; test: Immunohistochemistry, cancer tissue microarray, skin; format: binding
Description: as §1, §2

[8] = tested on: lung adenocarcinoma cells; test: Antigen expression by Flow Cytometry, lung adenocarcinoma cell lines; format: binding, Human; details: multiple lung adenocarcinoma cell lines; primary antibody 10 ug/mL
Procedure: as §3, §4

[9] = tested on: pancreatic adenocarcinoma cells; test: Antigen expression by Flow Cytometry, pancreatic adenocarcinoma cell lines; format: binding, Human; details: primary antibody 10 ug/mL
Procedure: as §3, §4

[10] = tested on: pancreatic cancer samples; test: Immunohistochemistry, cancer tissue microarray, pancreas; format: binding
Description: as §1, §2

[11] = tested on: uterus cancer samples; test: Immunohistochemistry, cancer tissue microarray, uterus; format: binding
Description: as §1, §2

[12] = tested on: colon cancer samples; test: Immunohistochemistry, paraffin tissue sections, colon; format: binding
Description: as §1, §2

[13] = tested on: stomach cancer samples; test: Immunohistochemistry, cancer tissue microarray, stomach; format: binding
Description: as §1, §2

Row | Molecule | cancer samples positive for the antigen (IHC) [1] | antigen expression detected by Flow Cytometry [2] | cancer samples positive for the antigen (IHC) [3] | cancer samples positive for the antigen (IHC) [4] | antigen expression detected by Flow Cytometry [5] | cancer samples positive for the antigen (IHC) [6] | cancer samples positive for the antigen (IHC) [7] | antigen expression detected by Flow Cytometry [8] | antigen expression detected by Flow Cytometry [9] | cancer samples positive for the antigen (IHC) [10] | cancer samples positive for the antigen (IHC) [11] | cancer samples positive for the antigen (IHC) [12] | cancer samples positive for the antigen (IHC) [13]
1 | NEO-201: Humanized 16C3 antibody; binds epitopes in CEACAM5 and CEACAM6 | 85% | detected | 83% | 61% | detected | 90% | 16% | detected | detected | 86% | 51% | 94% | –
2 | B1 | 61% | – | 82% | – | detected | 67% | – | – | detected | 31% | 41% | 87% | 30%
